Results published in patent EP1333824B1, “TREATMENT OF SEXUAL DYSFUNCTION WITH BOMBESIN RECEPTOR ANTAGONISTS” (Warner-Lambert Company LLC, priority 2000, dated 2002).
pIC50: −log10 of the molar value.

Biological target: T1, human GRP receptor (BB2) (Homo sapiens, UniProt P30550)
T1 construct: expressed in transfected cells
Test: BB2 binding assay ([125I][Tyr4]bombesin, CHO-K1 cell membranes)
Experimental: In the following experiments, measurement of BB1 and BB2 binding was as follows. […] The final pellet was resuspended in assay buffer to a final cell concentration of 1.5 × 10^5/mL. […] Nonspecific binding was defined by 1µM bombesin. […] Radioactivity bound was determined using a gamma counter.
All competition data was analysed using nonlinear regression utilizing iterative curve-plotting procedures in Prism® (GraphPad Software Inc., San Diego, USA).

[1] = Table 5, N-terminal urethane derivatives
[2] = Table 7, N-terminal sulfonamide derivatives

T1 sequence (P30550 whole entry): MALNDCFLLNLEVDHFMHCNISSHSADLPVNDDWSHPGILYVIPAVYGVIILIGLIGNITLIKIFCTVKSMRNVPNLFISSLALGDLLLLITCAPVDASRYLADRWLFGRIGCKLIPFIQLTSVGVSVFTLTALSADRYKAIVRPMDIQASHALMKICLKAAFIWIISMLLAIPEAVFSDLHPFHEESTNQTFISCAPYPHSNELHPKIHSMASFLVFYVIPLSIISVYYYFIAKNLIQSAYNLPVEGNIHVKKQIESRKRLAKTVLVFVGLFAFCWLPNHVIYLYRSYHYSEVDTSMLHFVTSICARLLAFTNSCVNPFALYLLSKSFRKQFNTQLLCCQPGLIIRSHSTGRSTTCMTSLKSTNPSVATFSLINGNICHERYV

pIC50 [2] | Structure (SMILES) | further results
< 5.00 | Cc1ccc(S(=O)(=O)N[C@@](C)(Cc2c[nH]c3ccccc23)C(=O)NCC2(c3ccccn3)CCCCC2)cc1 [Example 112, (S)-3-(1H-Indol-3-yl)-2-methyl-N-(1-pyridin-2-yl-cyclohexylmethyl)-2-(toluene-4-sulfonylamino)-propionamide] | –
< 5.00 | C[C@@](Cc1c[nH]c2ccccc12)(NS(=O)(=O)c1ccccc1F)C(=O)NCC1(c2ccccn2)CCCCC1 [Example 114, (S)-2-(2-Fluorobenzenesulfonylamino)-3-(1H-indol-3-yl)-2-methyl-N-(1-pyridin-2-yl-cyclohexylmethyl)-propionamide] | –
< 5.00 | C[C@@](Cc1c[nH]c2ccccc12)(NS(=O)(=O)c1ccc(Cl)c(Cl)c1)C(=O)NCC1(c2ccccn2)CCCCC1 [Example 125, (S)-2-(3,4-Dichloro-benzenesulfonylamino)-3-(1H-indol-3-yl)-2-methyl-N-(1-pyridin-2-yl-cyclohexylmethyl)-propionamide] | –
< 5.00 | C[C@@](Cc1c[nH]c2ccccc12)(NS(=O)(=O)c1ccc(C(F)(F)F)cc1)C(=O)NCC1(c2ccccn2)CCCCC1 [Example 127, (S)-3-(1H-Indol-3-yl)-2-methyl-N-(1-pyridin-2-yl-cyclohexylmethyl)-2-(4-trifluoromethyl-benzenesulfonylamino)-propionamide] | –
< 5.00 | C[C@@](Cc1c[nH]c2ccccc12)(NS(=O)(=O)c1ccc(Cl)s1)C(=O)NCC1(c2ccccn2)CCCCC1 [Example 128, (S)-2-(5-Chloro-thiophene-2-sulfonylamino)-3-(1H-indol-3-yl)-2-methyl-N-(1-pyridin-2-yl-cyclohexylmethyl)-propionamide] | –
< 5.00 | C[C@@](Cc1c[nH]c2ccccc12)(NS(=O)(=O)c1ccc(C#N)cc1)C(=O)NCC1(c2ccccn2)CCCCC1 [Example 133, (S)-2-(4-Cyano-benzenesulfonylamino)-3-(1H-indol-3-yl)-2-methyl-N-(1-pyridin-2-yl-cyclohexylmethyl)-propionamide] | –
< 5.00 | C[C@@](Cc1c[nH]c2ccccc12)(NS(=O)(=O)c1ccccc1C#N)C(=O)NCC1(c2ccccn2)CCCCC1 [Example 134, (S)-2-(2-Cyano-benzenesulfonylamino)-3-(1H-indol-3-yl)-2-methyl-N-(1-pyridin-2-yl-cyclohexylmethyl)-propionamide] | –
< 5.00 | C[C@@](Cc1c[nH]c2ccccc12)(NS(=O)(=O)c1cccc2nsnc12)C(=O)NCC1(c2ccccn2)CCCCC1 [Example 137, (S)-2-(Benzo[1,2,5]thiadiazole-4-sulfonylamino)-3-(1H-indol-3-yl)-2-methyl-N-(1-pyridin-2-yl-cyclohexylmethyl)-propionamide] | –
< 5.00 | Cn1cnc(S(=O)(=O)N[C@@](C)(Cc2c[nH]c3ccccc23)C(=O)NCC2(c3ccccn3)CCCCC2)c1 [Example 138, (S)-3-(1H-Indol-3-yl)-2-methyl-2-(1-methyl-1H-imidazole-4-sulfonylamino)-N-(1-pyridin-2-yl-cyclohexylmethyl)-propionamide] | –
< 5.00 | C[C@@](Cc1c[nH]c2ccccc12)(NS(=O)(=O)c1cccc2nonc12)C(=O)NCC1(c2ccccn2)CCCCC1 [Example 139, (S)-2-(Benzo[1,2,5]oxadiazole-4-sulfonylamino)-3-(1H-indol-3-yl)-2-methyl-N-(1-pyridin-2-yl-cyclohexylmethyl)-propionamide] | –
< 5.00 | COC(=O)c1sccc1S(=O)(=O)N[C@@](C)(Cc1c[nH]c2ccccc12)C(=O)NCC1(c2ccccn2)CCCCC1 [Example 140, 3-{(S)-2-(1H-Indol-3-yl)-1-methyl-1-[(1-pyridin-2-yl-cyclohexylmethyl)-carbamoyl]-ethylsulfamoyl}-thiophene-2-carboxylic acid methyl ester] | –
< 5.00 | C[C@@](Cc1c[nH]c2ccccc12)(NS(=O)(=O)c1ccc(-c2ccon2)s1)C(=O)NCC1(c2ccccn2)CCCCC1 [Example 141, (S)-3-(1H-Indol-3-yl)-2-(5-isoxazol-3-yl-thiophene-2-sulfonylamino)-2-methyl-N-(1-pyridin-2-yl-cyclohexylmethyl)-propionamide] | –
< 5.00 | C[C@@](Cc1c[nH]c2ccccc12)(NS(=O)(=O)c1cccc(C#N)c1)C(=O)NCC1(c2ccccn2)CCCCC1 [Example 143, (S)-2-(3-Cyano-benzenesulfonylamino)-3-(1H-indol-3-yl)-2-methyl-N-(1-pyridin-2-yl-cyclohexylmethyl)-propionamide] | –

Continued, compound first:

Structure (SMILES) | pIC50 [2] | further results
CN(C)c1ccccc1C(=O)N[C@@](C)(Cc1c[nH]c2ccccc12)C(=O)NCC1(c2ccccn2)CCCCC1 [Example 48, C-Dimethylamino-N-{(S)-2-(1H-indol-3-yl)-1-methyl-1-[(1-pyridin-2-yl-cyclohexyl-methyl)-carbamoyl]-ethyl}-benzamide] | – | pIC50 (Table 3, N-acyl derivatives): < 5.00
C[C@@](Cc1c[nH]c2ccccc12)(NC(=O)c1ccccn1)C(=O)NCC1(c2ccccn2)CCCCC1 [Example 57, Pyridine-2-carboxylic acid {(S)-2-(1H-indol-3-yl)-1-methyl-1-[(1-pyridin-2-yl-cyclohexylmethyl)-carbamoyl]-ethyl}-amide] | – | pIC50 (Table 3, N-acyl derivatives): < 5.00
C[C@@](Cc1c[nH]c2ccccc12)(NC(=O)c1ccoc1)C(=O)NCC1(c2ccccn2)CCCCC1 [Example 59, Furan-3-carboxylic acid {(S)-2-(1H-indol-3-yl)-1-methyl-1-[(1-pyridin-2-yl-cyclohexylmethyl)-carbamoyl]-ethyl}-amide] | – | pIC50 (Table 3, N-acyl derivatives): < 5.00
C[C@@](Cc1c[nH]c2ccccc12)(NC(=O)c1ccco1)C(=O)NCC1(c2ccccn2)CCCCC1 [Example 60, Furan-2-carboxylic acid {(S)-2-(1H-indol-3-yl)-1-methyl-1-[(1-pyridin-2-yl-cyclohexylmethyl)-carbamoyl]-ethyl}-amide] | – | pIC50 (Table 3, N-acyl derivatives): < 5.00
Cc1cc(C(=O)N[C@@](C)(Cc2c[nH]c3ccccc23)C(=O)NCC2(c3ccccn3)CCCCC2)no1 [Example 62, 5-Methyl-isoxazole-3-carboxylic acid {(S)-2-(1H-indol-3-yl)-1-methyl-1-[(1-pyridin-2-yl-cyclohexylmethyl)-carbamoyl]-ethyl}-amide] | – | pIC50 (Table 3, N-acyl derivatives): < 5.00
C[C@@](Cc1c[nH]c2ccccc12)(NC(=O)c1cnc2ccccc2n1)C(=O)NCC1(c2ccccn2)CCCCC1 [Example 78, Quinoxaline-2-carboxylic acid {(S)-2-(1H-indol-3-yl)-1-methyl-1-[(1-pyridin-2-yl-cyclohexylmethyl)-carbamoyl]-ethyl}-amide] | – | pIC50 (Table 3, N-acyl derivatives): < 5.00
C[C@@](Cc1c[nH]c2ccccc12)(NC(=O)OCc1ccc(Cl)cc1Cl)C(=O)NCC1(c2ccccn2)CCCCC1 [Example 104, {(S)-2-(1H-Indol-3-yl)-1-methyl-1-[(1-pyridin-2-yl-cyclohexylmethyl)-carbamoyl]-ethyl}-carbamic acid 2,4-dichloro-benzyl ester] | – | pIC50 [1]: < 5.00
C[C@@](Cc1c[nH]c2ccccc12)(NC(=O)OCc1ccc2ncccc2c1)C(=O)NCC1(c2ccccn2)CCCCC1 [Example 110, {(S)-2-(1H-Indol-3-yl)-1-methyl-1-[(1-pyridin-2-yl-cyclohexylmethyl)-carbamoyl]-ethyl}-carbamic acid quinolin-6-ylmethyl ester] | – | pIC50 [1]: < 5.00
CN(C)c1cccc2c(S(=O)(=O)N[C@@](C)(Cc3c[nH]c4ccccc34)C(=O)NCC3(c4ccccn4)CCCCC3)cccc12 [Example 117, (S)-2-(5-Dimethylamino-naphthalene-1-sulfonylamino)-3-(1H-indol-3-yl)-2-methyl-N-(1-pyridin-2-yl-cyclohexylmethyl)-propionamide] | < 5.00 | –
C[C@@](Cc1c[nH]c2ccccc12)(NS(=O)(=O)c1ccc2ccccc2c1)C(=O)NCC1(c2ccccn2)CCCCC1 [Example 118, (S)-3-(1H-Indol-3-yl)-2-methyl-2-(naphthalene-2-sulfonylamino)-N-(1-pyridin-2-yl-cyclohexylmethyl)-propionamide] | < 5.00 | –
C[C@@](Cc1c[nH]c2ccccc12)(NS(=O)(=O)c1cccs1)C(=O)NCC1(c2ccccn2)CCCCC1 [Example 119, (S)-3-(1H-Indol-3-yl)-2-methyl-N-(1-pyridin-2-yl-cyclohexylmethyl)-2-(thiophene-2-sulfonylamino)-propionamide] | – | BB2 IC50 [2]: Ia
C[C@@](Cc1c[nH]c2ccccc12)(NS(=O)(=O)c1ccc([N+](=O)[O-])cc1)C(=O)NCC1(c2ccccn2)CCCCC1 [Example 123, (S)-3-(1H-Indol-3-yl)-2-methyl-2-(4-nitro-benzenesulfonylamino)-N-(1-pyridin-2-yl-cyclohexylmethyl)-propionamide] | < 5.00 | –
COc1ccc(S(=O)(=O)N[C@@](C)(Cc2c[nH]c3ccccc23)C(=O)NCC2(c3ccccn3)CCCCC2)cc1OC [Example 132, (S)-2-(3,4-Dimethoxy-benzenesulfonylamino)-3-(1H-indol-3-yl)-2-methyl-N-(1-pyridin-2-yl-cyclohexylmethyl)-propionamide] | < 5.00 | –
Cc1nn(C)c(Cl)c1S(=O)(=O)N[C@@](C)(Cc1c[nH]c2ccccc12)C(=O)NCC1(c2ccccn2)CCCCC1 [Example 135, (S)-2-(5-Chloro-1,3-dimethyl-1H-pyrazole-4-sulfonylamino)-3-(1H-indol-3-yl)-2-methyl-N-(1-pyridin-2-yl-cyclohexylmethyl)-propionamide] | < 5.00 | –
Cc1noc(C)c1S(=O)(=O)N[C@@](C)(Cc1c[nH]c2ccccc12)C(=O)NCC1(c2ccccn2)CCCCC1 [Example 136, (S)-2-(3,5-Dimethyl-isoxazole-4-sulfonylamino)-3-(1H-indol-3-yl)-2-methyl-N-(1-pyridin-2-yl-cyclohexylmethyl)-propionamide] | < 5.00 | –
C[C@@](Cc1c[nH]c2ccccc12)(NS(=O)(=O)Cc1ccccc1[N+](=O)[O-])C(=O)NCC1(c2ccccn2)CCCCC1 [Example 142, (S)-3-(1H-Indol-3-yl)-2-methyl-2-(2-nitro-phenylmethanesulfonylamino)-N-(1-pyridin-2-yl-cyclohexylmethyl)-propionamide] | < 5.00 | –
